Assay results taken from ChEMBL document CHEMBL1132957, “Design of potent dicyclic (4-10/5-8) gonadotropin releasing hormone (GnRH) antagonists” (J Med Chem, 2000).
Blank lines part the entries; values can stand above or below the compound they belong to. Activity calls are given as the source filed them. The calls are words filed in the database; no cut-off is given here. Positions of bridges follow the written chain, without caps; N, C: chain ends. Non-standard residues stand in square brackets, D forms with d. Residues, ends and D or L forms follow the SMILES beside them. dPhe(4-Cl) = N[C@H](Cc1ccc(Cl)cc1)C(=O)O; dPhe(4-F) = N[C@H](Cc1ccc(F)cc1)C(=O)O; d2Nal = N[C@H](Cc1ccc2ccccc2c1)C(=O)O; Dap = NC[C@H](N)C(=O)O

Experiments:
Rattus norvegicus [1] = test: Evaluated for the ovulation effects in the rat by administering the drug at the doses (25 ug); 2/5; type: functional, organism-based
Rattus norvegicus [2] = test: Evaluated for the ovulation effects in the rat by administering the drug at the doses (100 ug); 1/8; type: functional, organism-based
[3] = target: T1, Gonadotropin-releasing hormone receptor (Rattus norvegicus, UniProt P30969); test: Competitive radioligand binding assay, in human HEK293 cells stably transfected with the rat Gonadotropin-releasing hormone receptor; type: cell-based
T1 sequence (P30969 whole entry): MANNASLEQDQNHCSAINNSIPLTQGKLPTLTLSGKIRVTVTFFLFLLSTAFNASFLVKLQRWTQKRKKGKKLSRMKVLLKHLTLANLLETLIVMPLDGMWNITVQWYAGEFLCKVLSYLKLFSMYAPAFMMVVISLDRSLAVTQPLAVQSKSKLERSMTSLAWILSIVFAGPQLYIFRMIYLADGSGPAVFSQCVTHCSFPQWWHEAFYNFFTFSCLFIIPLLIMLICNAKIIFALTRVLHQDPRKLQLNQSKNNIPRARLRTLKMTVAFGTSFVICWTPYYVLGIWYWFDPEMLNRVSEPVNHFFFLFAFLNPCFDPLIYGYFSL

Rattus norvegicus [4] = test: Evaluated for the ovulation effects in the rat by administering the drug at the doses (50 ug); 2/8; type: functional, organism-based
Rattus norvegicus [5] = test: Evaluated for the ovulation effects in the rat by administering the drug at the doses (5 ug); 3/20; type: functional, organism-based
Rattus norvegicus [6] = test: Evaluated for the ovulation effects in the rat by administering the drug at the doses (10 ug); 0/10; type: functional, organism-based
Rattus norvegicus [7] = test: Evaluated for the ovulation effects in the rat by administering the drug at the doses (2.5 ug); 9/10; type: functional, organism-based
Rattus norvegicus [8] = test: Evaluated for the ovulation effects in the rat by administering the drug at the doses (1.0 ug); 11/15; type: functional, organism-based
Rattus norvegicus [9] = test: Evaluated for the ovulation effects in the rat by administering the drug at the doses (2.5 ug); 3/10; type: functional, organism-based
Rattus norvegicus [10] = test: Evaluated for the ovulation effects in the rat by administering the drug at the doses (10 ug); 0/9; type: functional, organism-based
Rattus norvegicus [11] = test: Evaluated for the ovulation effects in the rat by administering the drug at the doses (5 ug); 1/8; type: functional, organism-based
Rattus norvegicus [12] = test: Evaluated for the ovulation effects in the rat by administering the drug at the doses (2.5 ug); 3/8; type: functional, organism-based
Rattus norvegicus [13] = test: Evaluated for the ovulation effects in the rat by administering the drug at the doses (1.0 ug); 4/4; type: functional, organism-based
Rattus norvegicus [14] = test: Evaluated for the ovulation effects in the rat by administering the drug at the doses (5.0 ug); 4/7; type: functional, organism-based
Rattus norvegicus [15] = test: Evaluated for the ovulation effects in the rat by administering the drug at the doses (5 ug); 2/6; type: functional, organism-based
Rattus norvegicus [16] = test: Evaluated for the ovulation effects in the rat by administering the drug at the doses (2.5 ug); 3/3; type: functional, organism-based
Rattus norvegicus [17] = test: Evaluated for the ovulation effects in the rat by administering the drug at the doses (0.5 ug); 5/5; type: functional, organism-based
Rattus norvegicus [18] = test: Evaluated for the ovulation effects in the rat by administering the drug at the doses (1.0 ug); 2/11; type: functional, organism-based
Rattus norvegicus [19] = test: Evaluated for the ovulation effects in the rat by administering the drug at the doses (2.5 ug); 1/8; type: functional, organism-based
Rattus norvegicus [20] = test: Evaluated for the ovulation effects in the rat by administering the drug at the doses (10 ug); 3/3; type: functional, organism-based
Rattus norvegicus [21] = test: Evaluated for the ovulation effects in the rat by administering the drug at the doses (250 ug); 1/3
Rattus norvegicus [22] = test: Evaluated for the ovulation effects in the rat by administering the drug at the doses (250 ug); 0/6; type: functional, organism-based
Rattus norvegicus [23] = test: Evaluated for the ovulation effects in the rat by administering the drug at the doses (10 ug); 4/9; type: functional, organism-based
Rattus norvegicus [24] = test: Evaluated for the ovulation effects in the rat by administering the drug at the doses (5.0 ug); 0/6; type: functional, organism-based
Rattus norvegicus [25] = test: Evaluated for the ovulation effects in the rat by administering the drug at the doses (2.5 ug); 2/8
Rattus norvegicus [26] = test: Evaluated for the ovulation effects in the rat by administering the drug at the doses (25 ug); 4/4; type: functional, organism-based

Ki [3]: 1.3 nM
SMILES: CC(=O)N[C@H](Cc1ccc2ccccc2c1)C(=O)N[C@H](Cc1ccc(Cl)cc1)C(=O)N[C@H](Cc1cccnc1)C(=O)N[C@H]1CC(=O)NC[C@@H](C(N)=O)NC(=O)[C@@H]2CCCN2C(=O)[C@@H]2CCCCNC(=O)CC[C@H](NC1=O)C(=O)N[C@H](Cc1ccc3ccccc3c1)C(=O)N[C@@H](CC(C)C)C(=O)N2
Activity (Rattus norvegicus [1]): Weak activity | Activity (Rattus norvegicus [2]): Active | Activity (Rattus norvegicus [4]): Weak activity

Ki [3]: 0.32 nM
SMILES: CC(=O)N[C@H](Cc1ccc2ccccc2c1)C(=O)N[C@H](Cc1ccc(Cl)cc1)C(=O)N[C@H](Cc1c[nH]c2ccccc12)C(=O)N[C@H]1CC(=O)NC[C@@H](C(N)=O)NC(=O)[C@@H]2CCCN2C(=O)[C@@H]2CCCCNC(=O)CC[C@H](NC1=O)C(=O)N[C@H](CCCN=C(N)N)C(=O)N[C@@H](CC(C)C)C(=O)N2 (Ac-[d2Nal][dPhe(4-Cl)][dW]DE[dR]LKP[Dap]-NH2; lactam 4-10, 5-8)
Activity (Rattus norvegicus [5]): Weak activity | Activity (Rattus norvegicus [6]): Active | Activity (Rattus norvegicus [7]): inactive

Ki ([3]; hek293): 0.84 nM
SMILES: CC[C@H](NC(C)=O)C(=O)N[C@@H](Cc1ccc(Cl)cc1)C(=O)N[C@@H](Cc1c[nH]c2ccccc12)C(=O)N[C@@H](CC(=O)O)C(=O)N[C@@H]1CCC(=O)NCCCC[C@@H](C(=O)N2CCC[C@@H]2C(=O)N[C@@H](C)C(N)=O)NC(=O)[C@H](CC(C)C)NC(=O)[C@@H](CCCNC(=N)N)NC1=O (stereo in doubt; 13)

Ki [3]: 0.37 nM
SMILES: CC(=O)N[C@H](Cc1ccc2ccccc2c1)C(=O)N[C@H](Cc1ccc(Cl)cc1)C(=O)N[C@H](Cc1cccnc1)C(=O)N[C@H]1CC(=O)NC[C@@H](C(N)=O)NC(=O)[C@@H]2CCCN2C(=O)[C@@H]2CCNC(=O)CCNC(=O)C[C@H](NC1=O)C(=O)N[C@H](CCCN=C(N)N)C(=O)N[C@@H](CC(C)C)C(=O)N2
Activity (Rattus norvegicus [14]): Weak activity

Ki ([3]; hek293): 10 nM
SMILES: CC(=O)N[C@H](Cc1ccc2ccccc2c1)C(=O)N[C@H](Cc1ccc(F)cc1)C(=O)N[C@H](Cc1c[nH]c2ccccc12)C(=O)N[C@H]1CC(=O)NCC[C@@H](C(N)=O)NC(=O)[C@@H]2CCCN2C(=O)[C@H](CCCNC(=N)N)NC(=O)[C@H](CC(C)C)NC(=O)[C@@H](CCCNC(=N)N)NC(=O)[C@H](Cc2ccc(O)cc2)NC1=O

Ki [3]: 0.59 nM
SMILES: CC(=O)N[C@H](Cc1ccc2ccccc2c1)C(=O)N[C@H](Cc1ccc(Cl)cc1)C(=O)N[C@H](Cc1cccnc1)C(=O)N[C@H]1CC(=O)NC[C@@H](C(N)=O)NC(=O)[C@@H]2CCCN2C(=O)[C@@H]2CCNC(=O)[C@H](CCCN=C(N)N)NC(=O)CC[C@H](NC1=O)C(=O)N[C@H](Cc1cccnc1)C(=O)N[C@@H](CC(C)C)C(=O)N2
Activity (Rattus norvegicus [20]): inactive | Activity (Rattus norvegicus [21]): Weak activity | Activity (Rattus norvegicus [22]): Active

Ki [3]: 0.23 nM
SMILES: CC(=O)N[C@H](Cc1ccc2ccccc2c1)C(=O)N[C@H](Cc1ccc(Cl)cc1)C(=O)N[C@H](Cc1cccnc1)C(=O)N[C@H]1CC(=O)NC[C@@H](C(N)=O)NC(=O)[C@@H]2CCCN2C(=O)[C@@H]2CCNC(=O)[C@H](Cc3ccc(Cl)cc3)NC(=O)CC[C@H](NC1=O)C(=O)N[C@H](CCCN=C(N)N)C(=O)N[C@@H](CC(C)C)C(=O)N2
Activity (Rattus norvegicus [24]): Active | Activity (Rattus norvegicus [25]): Weak activity

More lines, now with the values behind:

SMILES: CC(=O)N[C@H](Cc1ccc2ccccc2c1)C(=O)N[C@H](Cc1ccc(Cl)cc1)C(=O)N[C@H](Cc1cccnc1)C(=O)N[C@H]1CC(=O)NC[C@@H](C(N)=O)NC(=O)[C@@H]2CCCN2C(=O)[C@@H]2CCNC(=O)[C@H](Cc3ccccc3)NC(=O)CC[C@H](NC1=O)C(=O)N[C@H](CCCN=C(N)N)C(=O)N[C@@H](CC(C)C)C(=O)N2
Activity (Rattus norvegicus [8]): inactive | Activity (Rattus norvegicus [9]): Weak activity | Activity (Rattus norvegicus [10]): Active | Ki [3]: 0.23 nM | Activity (Rattus norvegicus [11]): Active

SMILES: CC(=O)N[C@H](Cc1ccc2ccccc2c1)C(=O)N[C@H](Cc1ccc(Cl)cc1)C(=O)N[C@H](Cc1cccnc1)C(=O)N[C@H]1CC(=O)NC[C@@H](C(N)=O)NC(=O)[C@@H]2CCCN2C(=O)[C@@H]2CCNC(=O)[C@H](Cc3c[nH]cn3)NC(=O)CC[C@H](NC1=O)C(=O)N[C@H](CCCN=C(N)N)C(=O)N[C@@H](CC(C)C)C(=O)N2
Ki [3]: 0.1 nM | Activity (Rattus norvegicus [12]): Weak activity | Activity (Rattus norvegicus [13]): inactive

SMILES: CC(=O)N[C@H](Cc1ccc2ccccc2c1)C(=O)N[C@H](Cc1ccc(Cl)cc1)C(=O)N[C@H](Cc1c[nH]c2ccccc12)C(=O)N[C@H]1CC(=O)NC[C@@H](C(N)=O)NC(=O)[C@@H]2CCCN2C(=O)[C@@H]2CCCCNC(=O)CC[C@H](NC1=O)C(=O)N[C@H](Cc1ccc3ccccc3c1)C(=O)N[C@@H](CC(C)C)C(=O)N2
Ki [3]: 1.2 nM

SMILES: CC(=O)N[C@H](Cc1ccc2ccccc2c1)C(=O)N[C@H](Cc1ccc(Cl)cc1)C(=O)N[C@H](Cc1cccnc1)C(=O)N[C@H]1CC(=O)NC[C@@H](C(N)=O)NC(=O)[C@@H]2CCCN2C(=O)[C@@H]2CCCNC(=O)[C@H](Cc3ccccc3)NC(=O)C[C@H](NC1=O)C(=O)N[C@H](CCCN=C(N)N)C(=O)N[C@@H](CC(C)C)C(=O)N2
Activity (Rattus norvegicus [15]): Weak activity | Ki [3]: 0.75 nM | Activity (Rattus norvegicus [16]): inactive

SMILES: CC(=O)N[C@H](Cc1ccc2ccccc2c1)C(=O)N[C@H](Cc1ccc(Cl)cc1)C(=O)N[C@H](Cc1cccnc1)C(=O)N[C@H]1CC(=O)NC[C@@H](C(N)=O)NC(=O)[C@@H]2CCCN2C(=O)[C@@H]2CCNC(=O)[C@H](CCCN=C(N)N)NC(=O)CC[C@H](NC1=O)C(=O)N[C@H](CCCN=C(N)N)C(=O)N[C@@H](CC(C)C)C(=O)N2
Activity (Rattus norvegicus [17]): inactive | Ki [3]: 0.2 nM | Activity (Rattus norvegicus [18]): Active | Activity (Rattus norvegicus [19]): Active

SMILES: CC(=O)N[C@H](Cc1ccc2ccccc2c1)C(=O)N[C@H](Cc1ccc(Cl)cc1)C(=O)N[C@H](Cc1cccnc1)C(=O)N[C@H]1CC(=O)NC[C@@H](C(N)=O)NC(=O)[C@@H]2CCCN2C(=O)[C@@H]2CCNC(=O)CN(C)C(=O)CC[C@H](NC1=O)C(=O)N[C@H](CCCN=C(N)N)C(=O)N[C@@H](CC(C)C)C(=O)N2
Activity (Rattus norvegicus [23]): Weak activity | Ki [3]: 0.2 nM

SMILES: CC(=O)N[C@H](Cc1ccc2ccccc2c1)C(=O)N[C@H](Cc1ccc(F)cc1)C(=O)N[C@H](Cc1c[nH]c2ccccc12)C(=O)N[C@H]1CC(=O)NC(C(N)=O)NC(=O)[C@@H]2CCCN2C(=O)[C@H](CCCNC(=N)N)NC(=O)[C@H](CC(C)C)NC(=O)[C@@H](CCCNC(=N)N)NC(=O)[C@H](Cc2ccc(O)cc2)NC1=O (some centres not stated)
Ki ([3]; hek293): 1.3 nM

SMILES: CC(=O)N[C@H](Cc1ccc2ccccc2c1)C(=O)N[C@H](Cc1ccc(F)cc1)C(=O)N[C@H](Cc1c[nH]c2ccccc12)C(=O)N[C@H]1CCC(=O)NC(C(N)=O)NC(=O)[C@@H]2CCCN2C(=O)[C@H](CCCNC(=N)N)NC(=O)[C@H](CC(C)C)NC(=O)[C@@H](CCCNC(=N)N)NC(=O)[C@H](Cc2ccc(O)cc2)NC1=O (some centres not stated)
Ki ([3]; hek293): 1.3 nM

SMILES: CC(=O)N[C@H](Cc1ccc2ccccc2c1)C(=O)N[C@H](Cc1ccc(Cl)cc1)C(=O)N[C@H](Cc1cccnc1)C(=O)N[C@H]1CC(=O)NC[C@@H](C(N)=O)NC(=O)[C@@H]2CCCN2C(=O)[C@@H]2CCNC(=O)[C@H](Cc3ccccc3)NC(=O)C[C@H](NC1=O)C(=O)N[C@H](CCCN=C(N)N)C(=O)N[C@@H](CC(C)C)C(=O)N2
Ki [3]: 12 nM | Activity (Rattus norvegicus [26]): inactive

SMILES: CC(=O)N[C@H](Cc1ccc2ccccc2c1)C(=O)N[C@H](Cc1ccc(F)cc1)C(=O)N[C@H](Cc1c[nH]c2ccccc12)C(=O)N[C@H]1CC(=O)NC[C@@H](C(N)=O)NC(=O)[C@@H]2CCCN2C(=O)[C@H](CCCN=C(N)N)NC(=O)[C@H](CC(C)C)NC(=O)[C@@H](CCCN=C(N)N)NC(=O)[C@H](Cc2ccc(O)cc2)NC1=O (Ac-[d2Nal][dPhe(4-F)][dW]DY[dR]LRP[Dap]-NH2; lactam 4-10)
Ki ([3]; hek293): 0.36 nM
